SMILES strings stand for the structures. Read-outs that look alike come from different tables or passages of the source. Where only a bound is given, the exact number is not on record here.

The values that follow come from patent publication US9770022B2, “N-cycloalkyl-N-[(bicyclylphenyl)methylene]-(thio)carboxamide derivatives” (BAYER CROPSCIENCE AG, priority 2013, dated 2017).

The subject of one data set is Septoria tritici. The data set can be described thus: In vivo preventive test on Septoria tritici (wheat). Conditions: 500 ppm of active ingredient, evaluated 24 days after inoculation. On the procedure: (§1) Solvent: 5% by volume of Dimethyl sulfoxide
(§2) • 10% by volume of Acetone Emulsifier: 1 μl of Tween® 80 per mg of active ingredient
(§3) The active ingredients are made soluble and homogenized in a mixture of Dimethyl sulfoxide/Acetone/Tween® 80 and then diluted in water to the desired concentration.
(§4) The young plants of wheat are treated by spraying the active ingredient prepared as described above. Control plants are treated only with an aqueous solution of Acetone/Dimethyl sulfoxide/Tween® 80.
After 24 hours, the plants are contaminated by spraying the leaves with an aqueous suspension of Septoria tritici spores. The contaminated wheat plants are incubated for 72 hours at 18° C. and at 100% relative humidity and then for 21 days at 20° C. and at 90% relative humidity.
The test is evaluated 24 days after the inoculation. 0% means an efficacy which corresponds to that of the control plants while an efficacy of 100% means that no disease is observed.

In the next data set the test system is Uromyces appendiculatus. Nature of the data set: In vivo preventive test on Uromyces appendiculatus (bean rust). Particulars: for pest or weed control at 500 ppm: Uromyces appendiculatus, 264 h. The protocol:
as §1, §2, §3
The young plants of bean are treated by spraying the active ingredient prepared as described above. Control plants are treated only with an aqueous solution of Acetone/Dimethyl sulfoxide/Tween® 80.
After 24 hours, the plants are contaminated by spraying the leaves with an aqueous suspension of Uromyces appendiculatus spores. The contaminated bean plants are incubated for 24 hours at 20° C. and at 100% relative humidity and then for 10 days at 20° C. and at 70-80% relative humidity.
(§5) The test is evaluated 11 days after the inoculation. 0% means an efficacy which corresponds to that of the control plants while an efficacy of 100% means that no disease is observed.

The test system of the next data set is Puccinia recondita. The data set can be described thus: In vivo preventive test on Puccinia recondita (brown rust on wheat). Conditions: evaluated 11 days after inoculation. On the procedure:
as §1, §2, §3, §4
After 24 hours, the plants are contaminated by spraying the leaves with an aqueous suspension of Puccinia recondita spores. The contaminated wheat plants are incubated for 24 hours at 20° C. and at 100% relative humidity and then for 10 days at 20° C. and at 70-80% relative humidity.
as §5

The test system of a further data set is Alternaria brassicae. Nature of the data set: In vivo preventive test on Alternaria brassicae (leaf spot on radish). Particulars: 500 ppm of active ingredient, spray 24 hours before inoculation, evaluated 6 days after inoculation. On the procedure: as §1, §2, §3
The young plants of radish are treated by spraying the active ingredient prepared as described above. Control plants are treated only with an aqueous solution of Acetone/Dimethyl sulfoxide/Tween® 80.
After 24 hours, the plants are contaminated by spraying the leaves with an aqueous suspension of Alternaria brassicae spores. The contaminated radish plants are incubated for 6 days at 20° C. and at 100% relative humidity.
The test is evaluated 6 days after the inoculation. 0% means an efficacy which corresponds to that of the control plants while an efficacy of 100% means that no disease is observed.

For another data set, the system named is Sphaerotheca fuliginea. Nature of the data set: In vivo preventive test on Sphaerotheca fuliginea (powdery mildew on cucurbits). Conditions: gherkin, evaluated 15 days after inoculation. On the procedure:
as §1, §2, §3
The young plants of gherkin are treated by spraying the active ingredient prepared as described above. Control plants are treated only with an aqueous solution of Acetone/Dimethyl sulfoxide/Tween® 80.
After 24 hours, the plants are contaminated by spraying the leaves with an aqueous suspension of Sphaerotheca fuliginea spores. The contaminated gherkin plants are incubated for 72 hours at 18° C. and at 100% relative humidity and then for 12 days at 20° C. and at 70-80% relative humidity.
The test is evaluated 15 days after the inoculation. 0% means an efficacy which corresponds to that of the control plants while an efficacy of 100% means that no disease is observed.

The test system of another data set is Pyrenophora teres. The data set can be described thus: In vivo preventive test on Pyrenophora teres (barley). Particulars: 500 ppm of active ingredient, evaluated 14 days after inoculation. The protocol: as §1, §2, §3
The young plants of barley are treated by spraying the active ingredient prepared as described above. Control plants are treated only with an aqueous solution of Acetone/Dimethyl sulfoxide/Tween® 80.
After 24 hours, the plants are contaminated by spraying the leaves with an aqueous suspension of Pyrenophora teres spores. The contaminated barley plants are incubated for 48 hours at 20° C. and at 100% relative humidity and then for 12 days at 20° C. and at 70-80% relative humidity.
The test is evaluated 14 days after the inoculation. 0% means an efficacy which corresponds to that of the control plants while an efficacy of 100% means that no disease is observed.

A short description of data set [1]: log P by HPLC on reversed-phase column (C 18), EEC Directive 79/831 Annex V.A8. Conditions: for chromatographic logP: reversed-phase HPLC column (C 18). It counts as physicochemical. The protocol:
In table 1, the log P values were determined in accordance with EEC Directive 79/831 Annex V.A8 by HPLC (High Performance Liquid Chromatography) on a reversed-phase column (C 18), using the method described below:
Temperature: 40° C.; Mobile phases: 0.1% aqueous formic acid and acetonitrile; linear gradient from 10% acetonitrile to 90% acetonitrile.
Calibration was carried out using unbranched alkan-2-ones (comprising 3 to 16 carbon atoms) with known log P values (determination of the log P values by the retention times using linear interpolation between two successive alkanones). lambda-max-values were determined using UV-spectra from 200 nm to 400 nm and the peak values of the chromatographic signals.

The mark [2] stands for this setting: 500 ppm of active ingredient, evaluated 11 days after inoculation.
The mark [3] stands for this setting: Table 1, HPLC C 18, 40° C., 0.1% aqueous formic acid and acetonitrile, gradient 10% to 90% acetonitrile, two values = mixture of endo and exo isomers.
Setting [4] is: 500 ppm, evaluated 11 days after inoculation, Table F2 comparison, read-out: Efficacy.

`O=C(c1ccsc1Br)N(Cc1ccccc1C1CC2CCC1C2)C1CC1` (mixture of isomers) [I.04] yielded an Efficacy in the data set on Septoria tritici of 79%.

With `CC(c1ccccc1C1=CCCCC1)N(C(=O)c1c(C(F)F)nn(C)c1F)C1CC1` (stereo not shown) [CMP8, N-{1-[2-(cyclohex-1-en-1-yl)phenyl]ethyl}-N-cyclopropyl-3-(difluoromethyl)-5-fluoro-1-methyl-1H-pyrazole-4-carboxamide, reference compound], in the data set with Uromyces appendiculatus (500 ppm, evaluated 11 days after inoculation, Table F3 comparison, read-out: Efficacy), the pest or weed control at 500 ppm was < 55%.

Take `Cn1cc(C(=S)N(Cc2ccccc2C2CC3CCC2C3)C2CC2)c(C(F)F)n1` (mixture of isomers) [I.19]: the Efficacy in the data set with Septoria tritici is listed as 98%; in the data set with Puccinia recondita (500 ppm of active ingredient), 88%; in the data set with Alternaria brassicae, 75%; in the data set on Sphaerotheca fuliginea (500 ppm of active ingredient), 95%.

In the case of `Cn1nc(C(F)F)c(C(=O)N(Cc2cc(Cl)ccc2C23CCCC2C3(Cl)Cl)C2CC2)c1F` (stereo not shown) [I.08], the Efficacy in the data set on Pyrenophora teres is recorded as 81%; in the data set with Uromyces appendiculatus (setting [2]) it was 99%; with Septoria tritici it was 94%; in the data set with Puccinia recondita (500 ppm of active ingredient), 88%; in the data set with Sphaerotheca fuliginea (500 ppm of active ingredient) it was 100%. Moreover, the logP in data set [1] (setting [3]) was determined as 4.85.

`Cn1nc(C(F)F)c(C(=O)N(Cc2cc(C34CCCCC3C4(Cl)Cl)ccc2Cl)C2CC2)c1F` (stereo not shown) [I.12]: the Efficacy was determined as 75% with Pyrenophora teres, 94% with Septoria tritici, 97% in the data set with Alternaria brassicae and 100% with Sphaerotheca fuliginea (500 ppm of active ingredient). Further, the logP in data set [1] (setting [3]) is reported as 5.25.

Consider `Cn1cc(C(=O)N(Cc2ccccc2C2=CC3CCC2(C)C3(C)C)C2CC2)c(C(F)(F)F)c1` (stereo not shown) [I.22], for which the logP in data set [1] (setting [3]) is on record as 5.72.

`Cn1cc(C(=O)N(Cc2ccccc2C2CCCCC2)C2CC2)c(C(F)F)n1` [CMP6, N-(2-cyclohexylbenzyl)-N-cyclopropyl-3-(difluoromethyl)-1-methyl-1H-pyrazole-4-carboxamide, reference compound]: the pest or weed control at 500 ppm in the data set with Uromyces appendiculatus (setting [4]) was < 40%.

For `Cn1nc(C(F)F)c(C(=S)N(Cc2ccccc2C2CC3CCC2C3)C2CC2)c1Cl` (stereo not shown) [I.06], the Efficacy was found to be 75% with Pyrenophora teres; 99% in the data set on Uromyces appendiculatus (setting [2]); 88% in the data set on Septoria tritici; 88% in the data set on Puccinia recondita (500 ppm of active ingredient); 98% with Sphaerotheca fuliginea (500 ppm of active ingredient). The logP in data set [1] (setting [3]) was determined as 5.45.

In the case of `Cn1nc(C(F)F)c(C(=O)N(Cc2ccccc2C2CCCCC2)C2CC2)c1F` [CMP5, N-(2-cyclohexylbenzyl)-N-cyclopropyl-3-(difluoromethyl)-5-fluoro-1-methyl-1H-pyrazole-4-carboxamide, reference compound], the pest or weed control at 500 ppm with Uromyces appendiculatus (setting [4]) is < 40%.

As for `Cc1nn(C)c(F)c1C(=O)N(Cc1ccccc1C1CCCC1)C1CC1` [CMP4, N-(2-cyclopentylbenzyl)-N-cyclopropyl-5-fluoro-1,3-dimethyl-1H-pyrazole-4-carboxamide, reference compound], the pest or weed control at 500 ppm with Uromyces appendiculatus (setting [4]) is < 40%.

In the case of `Cn1nc(C(F)F)c(C(=O)N(Cc2cc(Cl)ccc2C23CCCCC2C3(Cl)Cl)C2CC2)c1F` (stereo not shown) [I.11], in data set [1] (setting [3]), the log partition coefficient (logP) is given as 5.22. Further, the Efficacy stood at 75% in the data set with Septoria tritici, 75% with Puccinia recondita (500 ppm of active ingredient), 75% in the data set on Alternaria brassicae and 100% in the data set with Sphaerotheca fuliginea (500 ppm of active ingredient).

For the molecule `Cn1nc(C(F)F)c(C(=O)N(Cc2cc(CC3C4CCC(C4)C3(C)C)ccc2C(C)(C)C)C2CC2)c1F` (stereo not shown) [I.23], the logP in data set [1] (setting [3]) is listed as 7.09. The Efficacy is 79^(1) % in the data set with Puccinia recondita (at 100 ppm (note 1)) and 100^(1) % with Sphaerotheca fuliginea (at 100 ppm (note 1)).

As for `Cn1nc(C(F)F)c(C(=O)N(Cc2ccccc2C2CC3CCC2C3)C2CC2)c1Cl` (mixture of isomers) [I.02], the Efficacy came out at 86% in the data set on Septoria tritici, 88% in the data set with Puccinia recondita (500 ppm of active ingredient) and 98% in the data set on Sphaerotheca fuliginea (500 ppm of active ingredient).

In data set [1] (Table 2 (amines IIa), same HPLC method, broad signal), `c1ccc(C2CC3CCC2C3)c(CNC2CC2)c1` (stereo not shown) [IIa.1, N-[2-(bicyclo[2.2.1]hept-2-yl)benzyl]cyclopropanamine] came in with a chromatographic logP of 2.01.

In the case of `Cn1nc(C(F)F)c(C(=O)N(Cc2cc(Cl)ccc2C23CCCCCC2C3(Cl)Cl)C2CC2)c1F` (stereo not shown) [I.14], the logP in data set [1] (setting [3]) was 5.54. The Efficacy in the data set on Septoria tritici is on record as 94%; in the data set with Puccinia recondita (500 ppm of active ingredient), 75%; with Alternaria brassicae it was 83%; in the data set on Sphaerotheca fuliginea (500 ppm of active ingredient), 100%.

Turning to `Cn1nc(C(F)F)c(C(=O)N(Cc2ccccc2C23CCCC2C3(Cl)Cl)C2CC2)c1F` (stereo not shown) [I.07, N-cyclopropyl-N-[2-(6,6-dichlorobicyclo[3.1.0]hex-1-yl)benzyl]-3-(difluoromethyl)-5-fluoro-1-methyl-1H-pyrazole-4-carboxamide], the Efficacy with Pyrenophora teres is given as 81%; in the data set with Septoria tritici, 94%; with Puccinia recondita (500 ppm of active ingredient) it was 94%; with Sphaerotheca fuliginea (500 ppm of active ingredient), 100%. In addition, in the data set with Uromyces appendiculatus (500 ppm of active ingredient, evaluated 11 days after inoculation, read-out: Efficacy), the pest or weed control at 500 ppm came out at 100%. The chromatographic logP in data set [1] (setting [3]) was 4.46.

Regarding `Cc1nn(C)c(F)c1C(=O)N(Cc1ccccc1C1CC2CCC1C2)C1CC1` (stereo not shown) [I.01, N-[2-(bicyclo[2.2.1]hept-2-yl)benzyl]-N-cyclopropyl-5-fluoro-1,3-dimethyl-1H-pyrazole-4-carboxamide], the Efficacy with Pyrenophora teres is 100%; in the data set with Septoria tritici, 100%; with Puccinia recondita (500 ppm of active ingredient) it was 100%; in the data set on Sphaerotheca fuliginea (100 ppm, Table E2 comparison) it was “total protection”; in the data set with Sphaerotheca fuliginea (500 ppm of active ingredient) it was 100%. Further, the pest or weed control at 500 ppm is 100% with Uromyces appendiculatus (read-out: Efficacy, 500 ppm of active ingredient, evaluated 11 days after inoculation) and ≥ 80% in the data set on Uromyces appendiculatus (read-out: Efficacy, 500 ppm, evaluated 11 days after inoculation, Table F2 comparison). Also, in data set [1] (setting [3]), the log partition coefficient (logP) is given as 4.24. Further, the chromatographic logP in data set [1] (setting [3]) came out at 4.16.

`CC(c1ccccc1C1CCCC1)N(C(=O)c1c(C(F)F)nn(C)c1Cl)C1CC1` (stereo not shown) [CMP7, 5-chloro-N-[1-(2-cyclopentylphenyl)ethyl]-N-cyclopropyl-3-(difluoromethyl)-1-methyl-1H-pyrazole-4-carboxamide, reference compound]: the pest or weed control at 500 ppm with Uromyces appendiculatus (setting [4]) is < 40%.

Regarding `Cn1nc(C(F)F)c(C(=O)N(Cc2ccccc2C23CCCCC2C3(Cl)Cl)C2CC2)c1F` (stereo not shown) [I.10], the lipophilicity (logP) in data set [1] (setting [3]) is 4.82. Also, the Efficacy in the data set with Septoria tritici was found to be 88%; in the data set on Puccinia recondita (500 ppm of active ingredient) it was 88%; with Sphaerotheca fuliginea (500 ppm of active ingredient), 100%.
